Tests used:
[1] = in vitro; conditions: PAMPA, pH 7.4
[2] = PAMPA
[3] = test system: VeroE6 cells; conditions: cited from earlier work
[4] = test system: EBOV-GP-pseudotype virus (pEBOV); conditions: cited from earlier work
[5] = test system: wild-type EBOV (Orthoebolavirus zairense, Mayinga variant); conditions: for EC50: read-out: EC50 (EBOV)
[6] = in vitro; conditions: for CC50: African green monkey; for CC50 at 24 h: chlorocebus sabaeus
[7] = test system: EBOV-GP-pseudotype virus (pEBOV)
[8] = test system: A549 cells; conditions: cited from earlier work
[9] = test system: EBOV-GP-pseudotype virus (pEBOV); assay: microbe, parasite or virus in culture; conditions: Zaire ebolavirus; for EC50: Vero C1008, read-out: EC50 (pEBOV); for inhibition at 10 µM: Vero C1008, read-out: %inh@10 μM (pEBOV)
[10] = CD-1, mouse, pH 7.4
[11] = in vitro; conditions: CD-1, mouse, microsomes, pH 7.4
[12] = test system: VSV-G-pseudotype virus (pVSV-G); assay: microbe, parasite or virus in culture; format: cell-based; conditions: Vesicular stomatitis virus; read-out: %inh@10µM (pVSV-G)
[13] = pH 7.4
[14] = in vitro; conditions: human, microsomes, pH 7.4
[15] = target: EBOV-GP protein (Zaire ebolavirus, UniProt Q05320); format: binding, Ebola virus
[16] = target: EBOV-GPcl/NPC1-domain C interaction (Zaire ebolavirus, UniProt Q05320); format: binding; conditions: 50 μM

Cn1c(=O)c2c(ncn2C)n(C)c1=O [Caffeine, reference compound]
Papp [1]: 1.5 ± 0.3 ×10⁻⁶ cm/s | prediction of CNS penetration [2]: CNS−

CCn1cc(C(=O)O)c(=O)c2cc(F)c(N3CCNCC3)nc21 [Enoxacin, reference compound]
Papp [1]: 1.2 ± 0.2 ×10⁻⁶ cm/s | prediction of CNS penetration [2]: CNS−

NC(=O)c1nc(F)c[nH]c1=O [Favipiravir, reference compound]
CC50 [3]: > 1000 µM

CN1C(C(=O)Nc2ccccn2)=C(O)c2ccccc2S1(=O)=O [Piroxicam, reference compound]
prediction of CNS penetration [2]: CNS− | Pe ([2]; pH 7.4): 1.6 ± 0.7

CN(C)CCCN1c2ccccc2Sc2ccccc21 [Promazine, reference compound]
Papp [1]: 9.1 ± 1.3 ×10⁻⁶ cm/s | prediction of CNS penetration [2]: CNS+

O=C(CN1CCCC1)NNc1ccccc1Sc1cc(Cl)ccc1[N+](=O)[O-] [SC073]
SI (CC50/EC50) of the hits, pEBOV [4]: 27.5 | SI (CC50/EC50), replicative EBOV [5]: 18.6 | EC50 [5]: 4.3 µM | prediction of CNS penetration [2]: SNC + | CC50 [3]: 80 µM

CCN(CC)CC(=O)NNc1ccccc1Sc1cc(Cl)ccc1[N+](=O)[O-] [SC198]
SI (CC50/EC50) of the hits, pEBOV [4]: 12.4 | SI (CC50/EC50), replicative EBOV [5]: 8.3 | EC50 [5]: 6 µM | prediction of CNS penetration [2]: SNC + | CC50 [3]: 50 µM

CN(C)CCOc1ccc(/C(=C(/CCCl)c2ccccc2)c2ccccc2)cc1 [Toremifene, reference compound]
CC50 [6]: 10 µM | SI (pEBOV) (CC50/EC50) [7]: d Toremifene was used as the reference of the assay EC50 = 0.17 μM (95% CI = 0.15–0.54 μM), CC50 (VeroE6 cells) = 10 μM, SI = 58.8 (lit^25: EC50 = 0.07 ± 0.05 μM, CC50 (A549 cells) = 16 μM, SI = 229). | CC50 [8]: 16 µM | EC50 [9]: 0.17 µM

O=C(CN1CCCC1)Nc1ccccc1Sc1cc(Cl)ccc1[N+](=O)[O-] [compound 7, N-(2-((5-Chloro-2-nitrophenyl)thio)phenyl)-2-(pyrrolidin-1-yl)acetamide]
CC50 [6]: > 200 µM | EC50 (EBOV) [5]: inactive | antiviral activity against pEBOV, in words [7]: inactive | inhibition at 10 µM [9]: -2%

CCN(CC)CC(=O)Nc1ccccc1Sc1cc(Cl)ccc1[N+](=O)[O-] [compound 8, N-(2-((5-Chloro-2-nitrophenyl)thio)phenyl)-2-(diethylamino)acetamide]
CC50 [6]: > 200 µM | antiviral activity against pEBOV, in words [7]: inactive | inhibition at 10 µM [9]: -5%

O=C(CN1CCCCC1)Nc1ccccc1Sc1cc(Cl)ccc1[N+](=O)[O-] [compound 9, N-(2-((5-Chloro-2-nitrophenyl)thio)phenyl)-2-(piperidin-1-yl)acetamide]
CC50 [6]: > 200 µM | antiviral activity against pEBOV, in words [7]: no activity | inhibition at 10 µM [9]: -10%

O=C(CNCc1ccccc1)Nc1ccccc1Sc1cc(Cl)ccc1[N+](=O)[O-] [compound 10, 2-(Benzylamine)-N-(2-((5-chloro-2-nitrophenyl)thio)phenyl)acetamide]
CC50 [6]: > 200 µM | antiviral activity against pEBOV, in words [7]: no activity | inhibition at 10 µM [9]: 18%

O=C(CNCCC1CCN(Cc2ccccc2)CC1)Nc1ccccc1Sc1cc(Cl)ccc1[N+](=O)[O-] [compound 11, 2-((2-(1-Benzylpiperidin-4-yl)ethyl)amino)-N-(2-((5-chloro-2-nitrophenyl)thio)phenyl)acetamide]
metabolic stability in mouse liver microsomes CLint [10]: 390 ± 70 mL/min/mg protein | CC50 at 24 h [6]: 150 µM | half-life at 10 µM [11]: 6 ± 1 min | inhibition at 10 µM [12]: 38% | SI (CC50/EC50), replicative EBOV [5]: 28.8 | EC50 [5]: 5.2 µM | SI (pEBOV) (CC50/EC50) [7]: 26.7 | metabolic stability in human liver microsomes CLint [13]: 25 ± 4 mL/min/mg protein | half-life at 10 µM [14]: 23 ± 4 min | prediction of CNS penetration [2]: SNC + | EC50 [9]: 5.61 µM

O=C(CCN1CCCC1)Nc1ccccc1Sc1cc(Cl)ccc1[N+](=O)[O-] [compound 12, N-(2-((5-Chloro-2-nitrophenyl)thio)phenyl)-3-(pyrrolidin-1-yl)propanamide]
metabolic stability in mouse liver microsomes CLint [10]: 260 ± 80 mL/min/mg protein | CC50 at 24 h [6]: 300 µM | half-life at 10 µM [11]: 10 ± 3 min | inhibition at 10 µM [12]: 36% | EC50 (EBOV) [5]: inactive | SI (pEBOV) (CC50/EC50) [7]: 61.2 | metabolic stability in human liver microsomes CLint [13]: 12.5 ± 0.6 mL/min/mg protein | half-life at 10 µM [14]: 46 ± 2 min | prediction of CNS penetration [2]: SNC + | EC50 [9]: 4.9 µM

CCN(CC)CCC(=O)Nc1ccccc1Sc1cc(Cl)ccc1[N+](=O)[O-] [compound 13, N-(2-((5-Chloro-2-nitrophenyl)thio)phenyl)-3-(diethylamino)propanamide]
metabolic stability in mouse liver microsomes CLint [10]: 390 ± 60 mL/min/mg protein | CC50 at 24 h [6]: 150 µM | half-life at 10 µM [11]: 6.4 ± 0.9 min | inhibition at 10 µM [12]: -5% | SI (CC50/EC50), replicative EBOV [5]: 3.3 | EC50 [5]: 44.5 µM | SI (pEBOV) (CC50/EC50) [7]: 16.9 | metabolic stability in human liver microsomes CLint [13]: 36 ± 8 mL/min/mg protein | half-life at 10 µM [14]: 16 ± 3 min | prediction of CNS penetration [2]: SNC + | EC50 [9]: 8.87 µM

O=C(CCNCCc1ccccc1)Nc1ccccc1Sc1cc(Cl)ccc1[N+](=O)[O-] [compound 14, N-(2-((5-Chloro-2-nitrophenyl)thio)phenyl)-3-(phenethylamino)propanamide]
CC50 [6]: > 200 µM | antiviral activity against pEBOV, in words [7]: no activity | inhibition at 10 µM [9]: 23%

O=C(CCNCCC1CCN(Cc2ccccc2)CC1)Nc1ccccc1Sc1cc(Cl)ccc1[N+](=O)[O-] [compound 15, 3-((2-(1-Benzylpiperidin-4-yl)ethyl)amino)-N-(2-((5-chloro-2-nitrophenyl)thio)phenyl)propanamide]
CC50 at 24 h [6]: 9 µM | antiviral activity against pEBOV, in words [7]: no activity | inhibition at 10 µM [9]: < 75%

O=C(CNCCC1CCN(Cc2ccccc2)CC1)Nc1ccccc1Nc1cc(Cl)ccc1[N+](=O)[O-] [compound 16, 2-((2-(1-Benzylpiperidin-4-yl)ethyl)amino)-N-(2-((5-chloro-2-nitrophenyl)amino)phenyl)acetamide]
metabolic stability in mouse liver microsomes CLint [10]: 310 ± 50 mL/min/mg protein | CC50 at 24 h [6]: 10 µM | STD-NMR competition with imipramine [15]: both compounds target the same binding site of EBOV-GP | binding to EBOV-GP by STD-NMR [15]: binds to the protein | half-life at 10 µM [11]: 8 ± 1 min | inhibition at 10 µM [12]: -44% | EC50 [5]: 4.42 µM | metabolic stability in human liver microsomes CLint [13]: 12 ± 2 mL/min/mg protein | increase in metabolic stability in human microsomes [13]: 105% | half-life at 10 µM [14]: 47 ± 7 min | prediction of CNS penetration [2]: SNC + | EC50 [9]: 2.43 µM | effect on binding of EBOV-GP to NPC1 domain C (ELISA) [16]: interferes with the interaction between NPC1 and EBOV-GP

O=C(CCN1CCCC1)Nc1ccccc1Nc1cc(Cl)ccc1[N+](=O)[O-] [compound 17, N-(2-((5-Chloro-2-nitrophenyl)amino)phenyl)-3-(pyrrolidin-1-yl)propanamide]
metabolic stability in mouse liver microsomes CLint [10]: 130 ± 17 mL/min/mg protein | CC50 at 24 h [6]: 250 µM | half-life at 10 µM [11]: 20 ± 3 min | inhibition at 10 µM [12]: -133% | SI (CC50/EC50), replicative EBOV [5]: 38.5 | EC50 [5]: 6.48 µM | SI (pEBOV) (CC50/EC50) [7]: 27.9 | metabolic stability in human liver microsomes CLint [13]: 4.19 ± 0.02 mL/min/mg protein | increase in metabolic stability in human microsomes [13]: 195% | half-life at 10 µM [14]: 136.2 ± 0.5 min | prediction of CNS penetration [2]: SNC + | EC50 [9]: 8.94 µM

CCN(CC)CCC(=O)Nc1ccccc1Nc1cc(Cl)ccc1[N+](=O)[O-] [compound 18, N-(2-((5-Chloro-2-nitrophenyl)amino)phenyl)-3-(diethylamino)propanamide]
metabolic stability in mouse liver microsomes CLint [10]: 180 ± 70 mL/min/mg protein | CC50 at 24 h [6]: 150 µM | half-life at 10 µM [11]: 14 ± 6 min | inhibition at 10 µM [12]: 9% | SI (CC50/EC50), replicative EBOV [5]: 5.2 | EC50 [5]: 28.7 µM | SI (pEBOV) (CC50/EC50) [7]: 19.6 | metabolic stability in human liver microsomes CLint [13]: 9.1 ± 0.7 mL/min/mg protein | increase in metabolic stability in human microsomes [13]: 294% | half-life at 10 µM [14]: 63 ± 5 min | prediction of CNS penetration [2]: SNC + | EC50 [9]: 7.65 µM

O=C(CCNCCc1ccccc1)Nc1ccccc1Nc1cc(Cl)ccc1[N+](=O)[O-] [compound 19, N-(2-((5-Chloro-2-nitrophenyl)amino)phenyl)-3-(phenethylamino)propanamide]
CC50 at 24 h [6]: 15 µM | antiviral activity against pEBOV, in words [7]: inactive | inhibition at 10 µM [9]: 15%
